Reference: patent US8802712B2, “Pyrazoloquinolines” (Merck Patent GmbH, priority 2010, dated 2014)

Target: DNA-PK (Homo sapiens (Human), UniProt P78527)
Assay: DNA-PK/Biochemical Assay (FlashPlate kinase assay)
Settings: 5 μM ATP, 90 min, room temperature
Procedure: The kinase assay was carried out in streptavidin-coated […] microtitre FlashPlates®. To this end, 1.5 μg of the DNA-PK/protein complex and 100 ng of biotinylated substrate, such as, for example, […] biotin-NH2 (“biotin-DNA-PK peptide”), in a total volume of 36.5 μl (34.25 mM HEPES/KOH, 7.85 mM Tris-HCl, 68.5 mM KCl, 5 μM ATP, 6.85 mM MgCl2, 0.5 mM EDTA, 0.14 mM EGTA, 0.69 mM DTT, pH 7.4), were incubated at room temperature for 90 min with 500 ng of DNA from calf thymus, 0.1 μCi of 33P-ATP and 1.8% of DMSO per well with or without the test compound. The reaction was stopped using 50 μl/well of 200 mM EDTA. After incubation for a further 30 min at room temperature, the liquid was removed. Each well was washed three times with 100 μl of 0.9% sodium chloride solution. A non-specific reaction (blank value) was determined using 10 μM of a proprietary kinase inhibitor. The radioactivity measurement was carried out by means of a TopCount. IC50 values were calculated in RS1. • Literature: Kashishian et al. (2003) Molecular Cancer Therapeutics 1257.

IC50 | SMILES
< 0.1 µM | COc1cc2ncc3c(c(-c4ccc(C#N)cc4)nn3C)c2cc1OC(C(=O)O)c1ccccc1 (stereo not drawn) [Compound 20, [1-(4-Cyanophenyl)-7-methoxy-3-methyl-3H-pyrazolo[3,4-c]quinolin-8-yloxy]phenylacetic acid]
> 0.5 µM | COc1cc2ncc3n[nH]c(-c4ccc(C#N)c(-c5ccccc5)c4)c3c2cc1OC [Compound 74, 5-(7,8-Dimethoxy-3H-pyrazolo[3,4-c]quinolin-1-yl)biphenyl-2-carbonitrile]
< 0.1 µM | COc1cc2ncc3c(c(-c4ccc(C#N)cc4)nn3C)c2cc1OC(C(=O)O)c1cccs1 (stereo not drawn) [Compound 21, [1-(4-Cyanophenyl)-7-methoxy-3-methyl-3H-pyrazolo[3,4-c]quinolin-8-yloxy]thiophen-2-ylacetic acid]
< 0.1 µM | COc1cc2ncc3c(c(-c4ccc(C#N)cc4)nn3C)c2cc1OC(C(=O)O)c1ccc(F)cc1 (stereo not drawn) [Compound 19, [1-(4-Cyanophenyl)-7-methoxy-3-methyl-3H-pyrazolo[3,4-c]quinolin-8-yloxy]-(4-fluorophenyl)acetic acid]
< 0.1 µM | COc1cc2ncc3c(c(-c4ccc(C#N)cc4)nn3C)c2cc1OCc1nccs1 [Compound 39, 4-[7-Methoxy-3-methyl-8-(thiazol-2-ylmethoxy)-3H-pyrazolo[3,4-c]quinolin-1-yl]-benzonitrile]
< 0.1 µM | COc1cc2ncc3c(c(-c4ccc(C#N)cc4)nn3C)c2cc1OCc1cscn1 [Compound 42, 4-[7-Methoxy-3-methyl-8-(thiazol-4-ylmethoxy)-3H-pyrazolo[3,4-c]quinolin-1-yl]-benzonitrile]
0.1 to 0.5 µM | CCN1CCN(c2ccc(-c3nn(C)c4cnc5cc(OC)c(OC)cc5c34)cc2)CC1 [Compound 75, 1-[4-(4-Ethylpiperazin-1-yl)-phenyl]-7,8-dimethoxy-3-methyl-3H-pyrazolo[3,4-c]-quinoline]
< 0.1 µM | COc1cc2ncc3c(c(-c4ccc(C#N)cc4F)nn3C)c2cc1O [Compound 6, 3-Fluoro-4-(8-hydroxy-7-methoxy-3-methyl-3H-pyrazolo[3,4-c]quinolin-1-yl)benzonitrile]
> 0.5 µM | COc1cc2ncc3c(c(-c4ccc(C#N)cc4F)nn3Cc3cccnc3)c2cc1OC [Compound 64, 4-(7,8-Dimethoxy-3-pyridin-3-ylmethyl-3H-pyrazolo[3,4-c]-quinolin-1-yl)-3-fluoro-benzonitrile]
< 0.1 µM | COc1cc2ncc3c(c(-c4ccc(C#N)cc4)nn3C)c2cc1OCc1cncs1 [Compound 43, 4-[7-Methoxy-3-methyl-8-(thiazol-5-ylmethoxy)-3H-pyrazolo[3,4-c]quinolin-1-yl]-benzonitrile]
< 0.1 µM | COc1cc2ncc3c(c(-c4ccc(C#N)cc4)nn3C(F)F)c2cc1OC [Compound 69, 4-(3-Difluoromethyl-7,8-dimethoxy-3H-pyrazolo[3,4-c]-quinolin-1-yl)benzonitrile]
0.1 to 0.5 µM | COc1cc2ncc3c(c(-c4ccc(C#N)cc4)nn3C)c2cc1OC(C(=O)NCCN(C)C)c1ccc(F)cc1 (stereo not drawn) [Compound 49, 2-[1-(4-Cyano-phenyl)-7-methoxy-3-methyl-3H-pyrazolo-[3,4-c]quinolin-8-yl-oxy]-N-(2-dimethyl-aminoethyl)-2-(4-fluorophenyl)-acetamide]
> 0.5 µM | COc1cc2ncc3c(c(-c4ccc(C#N)cc4)nn3C)c2cc1OCc1ccc(-n2cccn2)nc1 [Compound 29, 4-[7-Methoxy-3-methyl-8-(6-pyrazol-1-ylpyridin-3-ylmethoxy)-3H-pyrazolo-[3,4-c]quinolin-1-yl]-benzonitrile]
< 0.1 µM | COc1cc2ncc3c(c(-c4ccc(C#N)cc4)nn3C)c2cc1OCc1cccs1 [Compound 34, 4-[7-Methoxy-3-methyl-8-(thiophen-2-ylmethoxy)-3H-pyrazolo[3,4-c]quinolin-1-yl]-benzonitrile]
> 0.5 µM | COc1cc2c(cc1OCC(O)CO)ncc1c2c(-c2ccc(C#N)cc2)nn1C (stereo not drawn) [Compound 47, 4-[7-(2,3-Dihydroxypropoxy)-8-methoxy-3-methyl-3H - pyrazolo[3,4-c]quinolin-1-yl]-benzonitrile]
> 0.5 µM | COc1cc2ncc3c(c(-c4ccc(C#N)cc4)nn3CC(C)C)c2cc1OC [Compound 61, 4-(3-lsobutyl-7,8-dimethoxy-3H-pyrazolo[3,4-c]quinolin-1-yl)benzonitrile]
< 0.1 µM | COc1cc2ncc3c(c(-c4ccccc4F)nn3C)c2cc1OC [Compound 76, 1-(2-Fluorophenyl)-7,8-dimethoxy-3-methyl-3H-pyrazolo[3,4-c]quinoline]
< 0.1 µM | COc1cc2ncc3c(c(-c4ccc(C#N)cc4F)nn3C)c2cc1-c1cnc2ccccc2c1 [Compound 78, 3-Fluoro-4-(7-methoxy-3-methyl-8-quinolin-3-yl-3H-pyrazolo[3,4-c]-quinolin-1-yl)-benzonitrile]

IC50 | SMILES
> 0.5 µM | COc1cc2ncc3c(c(-c4ccc(C#N)cc4)nn3C)c2cc1OCc1ccccn1 [Compound 13, 4-[7-Methoxy-3-methyl-8-(pyridin-2-ylmethoxy)-3H-pyrazolo[3,4-c]quinolin-1-yl]-benzonitrile]
< 0.1 µM | COc1cc2ncc3c(c(-c4ccc(C#N)c(Br)c4)nn3C)c2cc1OC [Compound 3]
< 0.1 µM | COc1cc2ncc3c(c(-c4ccc(C#N)cc4F)nn3C)c2cc1-c1cc[nH]c1 [Compound 89, 3-Fluoro-4-[7-methoxy-3-methyl-8-(1H-pyrrol-3-yl)-3H-pyrazolo[3,4-c]-quinolin-1-yl]-benzonitrile]
> 0.5 µM | COc1cc2ncc3c(c(-c4ccc(C#N)cc4)nn3C)c2cc1OCc1ccc(-n2cncn2)cc1 [Compound 31, 4-[7-Methoxy-3-methyl-8-(4-1,2,4-triazol-1-ylbenzyloxy)-3H-pyrazolo[3,4-c]quinolin-1-yl]benzonitrile]
0.1 to 0.5 µM | CCCn1nc(-c2ccc(C#N)cc2)c2c3cc(OC)c(OC)cc3ncc21 [Compound 59, 4-(7,8-Dimethoxy-3-propyl-3H-pyrazolo[3,4-c]quinolin-1-yl)-benzonitrile]
0.1 to 0.5 µM | COc1cc2ncc3c(c(-c4ccc(C#N)cc4)nn3C)c2cc1OS(=O)(=O)c1ccc(C)cc1 [Compound 24, 1-(4-Cyanophenyl)-7-methoxy-3-methyl-3H-pyrazolo[3,4-c]quinolin-8-yl toluene-4-sulfonate]
< 0.1 µM | COc1cc2ncc3c(c(-c4ccc(C#N)cc4)nn3C)c2cc1OCc1ccnc(N)c1 [Compound 33, 4-[8-(2-Aminopyridin-4-ylmethoxy)-7-methoxy-3-methyl-3H-pyrazolo[3,4-c]-quinolin-1-yl]benzonitrile]
< 0.1 µM | COc1cc2ncc3c(c(-c4ccc(C#N)cc4)nn3C)c2cc1O[C@@H](C(N)=O)c1ccc(F)cc1 [Compound 9, (R)-2-[1-(4-Cyanophenyl)-7-methoxy-3-methyl-3H-pyrazolo[3,4-c]quinolin-8-yloxy]-2-(4-fluorophenyl)-acetamide]
< 0.1 µM | COc1cc2ncc3c(c(-c4ccc(C#N)cc4F)nn3C)c2cc1-c1cccnc1 [Compound 77, 3-Fluoro-4-(7-methoxy-3-methyl-8-pyridin-3-yl-3H-pyrazolo[3,4-c]-quinolin-1-yl)-benzonitrile]
> 0.5 µM | CCCCn1nc(-c2ccc(C#N)cc2)c2c3cc(OC)c(OC)cc3ncc21 [Compound 58, 4-(3-Butyl-7,8-dimethoxy-3H-pyrazolo[3,4-c]quinolin-1-yl)-benzonitrile]
< 0.1 µM | COCc1cc(-c2nn(C)c3cnc4cc(OC)c(OC)cc4c23)ccc1C#N [Compound 71, 4-(7,8-Dimethoxy-3-methyl-3H-pyrazolo[3,4-c]quinolin-1-yl)-2-methoxymethyl-benzonitrile]
0.1 to 0.5 µM | COc1cc2ncc3c(c(-c4ccc(C#N)cc4)nn3C)c2cc1OCc1cccc(N(C)C)c1 [Compound 41, 4-[8-(3-Dimethylamino-benzyloxy)-7-methoxy-3-methyl-3H-pyrazolo[3,4-c]-quinolin-1-yl]benzonitrile]
0.1 to 0.5 µM | COc1cc2ncc3c(c(-c4ccc(C#N)cc4)nn3CC(=O)O)c2cc1OC [Compound 67, [1-(4-Cyanophenyl)-7,8-dimethoxypyrazolo[3,4-c]-quinolin-3-yl]acetic acid]
< 0.1 µM | COc1cc2ncc3c(c(-c4ccc(C#N)cc4)nn3C)c2cc1OCc1ccsc1 [Compound 35, 4-[7-Methoxy-3-methyl-8-(thiophen-3-ylmethoxy)-3H-pyrazolo[3,4-c]quinolin-1-yl]-benzonitrile]
< 0.1 µM | COc1cc2ncc3c(c(-c4ccc(-c5ccn[nH]5)cc4)nn3C)c2cc1OCc1cncs1 [Compound 79, 7-Methoxy-3-methyl-1-[4-(2H-pyrazol-3-yl)phenyl]-8-(thiazol-5-ylmethoxy)-3H-pyrazolo[3,4-c]quinoline]
< 0.1 µM | COc1cc2ncc3c(c(-c4ccc(C#N)cc4)nn3C)c2cc1OC(F)F [Compound 16, 4-(8-Difluoromethoxy-7-methoxy-3-methyl-3H-pyrazolo[3,4-c]quinolin-1-yl)-benzonitrile]
< 0.1 µM | COc1cc2ncc3c(c(-c4ccc(C#N)cc4)nn3C)c2cc1OC(C(=O)NO)c1ccc(F)cc1 (stereo not drawn) [Compound 53, 2-[1-(4-Cyano-phenyl)-7-methoxy-3-methyl-3H-pyrazolo-[3,4-c]quinolin-8-yloxy]-2-(4-fluoro-phenyl)-N-hydroxy-acetamide]
> 0.5 µM | COc1cc2c(cc1OCCN(C)C)ncc1c2c(-c2ccc(C#N)cc2)nn1C [Compound 46, 4-[7-(2-Dimethylamino-ethoxy)-8-methoxy-3-methyl-3H-pyrazolo[3,4-c]quinolin-1-yl]benzonitrile]
